This note sets out measurements from patent publication US6610646B2, “Enhanced duration fragrance delivery system having a non-distorted initial fragrance impression” (The Procter & Gamble Company, priority 2000, dated 2003).

The nature of assay [1]: Olfactory Intensity grading of solutions in DPG by expert panel, Initial Determination. More on the design: species or system human. The text has this: (§1) To determine the ODC and the OSC for a given fragrance raw material f, an Olfactory Intensity vs. Log Concentration curve is constructed. This process is comprised of both an initial and a final determination.
Olfactory Intensity is graded for each solution from 0 to 100 by a panel of at least three expert graders composed of average artisans of ordinary skill in perfume formulation. The Olfactory Intensity at any concentration is taken to be the mean of the individual grades at that concentration. Table I below gives Olfactory Intensity grades determined in this manner for two common fragrance raw materials at three different weight percent concentration in DPG.
The Initial Determination gives the general shape of the curve and is used to establish which of the nine concentrations (Entries 1-9 in Table II) will be used for the starting fragrance raw material concentration, [f]start, and which will be used for the upper concentration limit, [f]limit, in the Final Determination. The highest concentration of fragrance raw material that gives an Olfactory Intensity below 5 is chosen as the starting concentration for the Final Determination. In the example given, [f]start is 0.00001 wt. % of 2,6-dimethyl-5-heptenal in DPG (Table II, Entry 3). The lowest concentration of fragrance raw material above [f]start for which the Olfactory Intensity of the two immediately adjacent concentrations are separated by less than 5 is chosen as the upper concentration limit for the Final Determination. In the example given, [f]limit is 0.10 wt. % of 2,6-dimethyl-5-heptenal in DPG (Table II, Entry 7).

Assay [2] is described as follows: Olfactory Intensity grading of solutions in DPG by expert panel, Final Determination (ODC and OSC). The arrangement: species or system human. To be noted: for Olfactory Intensity: Final Determination, scale 0 to 100.
Excerpt: Odor Detection Concentration, vD: The odor detection concentration (ODC) is defined herein as the lowest weight percent concentration of a fragrance raw material dissolved in dipropylene glycol (DPG) at which the average artisan of ordinary skill in perfume formulation can detect a fragrance raw material olfactory intensity of 10 on a scale of intensity ranging from 0 to 100.
Odor Saturation Concentration, vS: The odor saturation concentration (OSC) is defined herein as the amount of fragrance raw material, expressed as weight percent dissolved in DPG, beyond which no further odor impression is provided as measured by the average artisan of ordinary skill in perfume formulation.
as §1
Final Determination: In constructing the final curve, multiples of said starting concentration are used. The concentrations used are the starting concentration, [f]start=1c, and the multiples 5c, 10c, 20c, 40c, 80c, 160c, 320c, 640c, 1280c, 2560c, 5120c, 1024c, 2048c, 4096c, etc., up to and including the point where the multiple first surpasses [f]limit. Olfactory Intensity is graded for each solution from 0 to 100 by a panel of at least three expert graders composed of average artisans of ordinary skill in perfume formulation. The Olfactory Intensity at any concentration is taken to be the mean of the individual grades at that concentration.
The Final Determination yields values for the ODC and the OSC. The odor detection concentration (ODC) is defined herein as the lowest weight percent concentration, above [f]start, of a fragrance raw material dissolved in dipropylene glycol (DPG) at which the fragrance raw material olfactory intensity is 10 on a scale of intensity ranging from 0 to 100. The determination may require linear interpolation between two consecutive concentrations where one has an olfactory intensity below 10 and the other above 10. For 2,6-dimethyl-5-heptenal, the ODC as determined above is 0.0001 wt. % (Table III, Entry 3). The odor saturation concentration (OSC) is defined as the lowest concentration of a fragrance raw material above the ODC for which the Olfactory Intensity of the two immediately adjacent concentrations are separated by less than 5. For 2,6-dimethyl-5-heptenal, the OSC as determined above is 0.0256 wt. % (Table III, Entry 11).

The mark [3] stands for this setting: 0.0005 wt. % in DPG, scale 0 to 100, mean of panel grades.

As to `CC=CC(=O)C1C(C)C=CCC1(C)C` (stereo not drawn) [1-(2,6,6-trimethyl-3-cyclohexen-1-yl)-2-buten-1-one], the “Olfactory Intensity” value worked out at 30 in assay [1] (0.00004 wt. % in DPG, scale 0 to 100, mean of panel grades); 50 in assay [1] (0.00009 wt. % in DPG, scale 0 to 100, mean of panel grades); 70 in assay [1] (setting [3]).
Consider `CC1=CC(C)C(C=O)CC1` (stereo not drawn) [2,4-dimethyl-3-cyclohexene-1-carboxaldehyde], for which the “Olfactory Intensity” value in assay [1] (setting [3]) is on record as 30; in assay [1] (0.001 wt. % in DPG, scale 0 to 100, mean of panel grades), 50; in assay [1] (0.003 wt. % in DPG, scale 0 to 100, mean of panel grades), 70.
For the compound `CC(C)=CCCC(C)C=O` (stereo not drawn) [2,6-dimethyl-5-heptenal], the “Olfactory Intensity” value in assay [2] (0.00001 wt. % in DPG) worked out at 0; in assay [2] (0.00005 wt. % in DPG), 6; in assay [2] (0.0001 wt. % in DPG), 10; in assay [2] (0.0002 wt. % in DPG), 19; in assay [2] (0.0004 wt. % in DPG), 33; in assay [2] (0.0008 wt. % in DPG), 50. Besides, the “Olfactory Intensity” value amounted to 64 in assay [2] (0.0016 wt. % in DPG); 74 in assay [2] (0.0032 wt. % in DPG); 78 in assay [2] (0.0064 wt. % in DPG); 81 in assay [2] (0.0128 wt. % in DPG); 83 in assay [2] (0.0256 wt. % in DPG); 83 in assay [2] (0.0512 wt. % in DPG). For the same compound, the “Olfactory Intensity” value is 84 in assay [2] (0.1024 wt. % in DPG); 0 in assay [1] (Initial Determination, 0.0000001 wt. % in DPG, scale 0 to 100); 0 in assay [1] (Initial Determination, 0.000001 wt. % in DPG, scale 0 to 100); 0 in assay [1] (Initial Determination, 0.00001 wt. % in DPG, scale 0 to 100); 10 in assay [1] (Initial Determination, 0.0001 wt. % in DPG, scale 0 to 100); 55 in assay [1] (Initial Determination, 0.001 wt. % in DPG, scale 0 to 100). Also, the “Olfactory Intensity” value in assay [1] (Initial Determination, 0.01 wt. % in DPG, scale 0 to 100) amounted to 81; in assay [1] (Initial Determination, 0.1 wt. % in DPG, scale 0 to 100), 83; in assay [1] (Initial Determination, 1.0 wt. % in DPG, scale 0 to 100) it was 84; in assay [1] (Initial Determination, 10.0 wt. % in DPG, scale 0 to 100), 84. Further, in assay [2] (lowest concentration in DPG above the ODC where intensities of the two adjacent concentrations differ by less than 5), the “odor saturation concentration (OSC)” value was determined as 0.0256 wt. %. Moreover, the “odor detection concentration (ODC)” value in assay [2] (lowest concentration in DPG with olfactory intensity 10 on a scale 0 to 100) came out at 0.0001 wt. %.
